Where two headings read alike, the source gives them in different places.
Key:
pig livers in vitro = conditions: 0.5 ml each; after 24 hours
From the text: Twelve pig livers purchased from the market were divided into 4 groups, 3 in each group. A puncture needle was punctured to the center of the liver tissue and then connected with an automatic microinjecting pump.

S-180 sarcomas = conditions: forty-eight hours after injection; for Diameters of coagulating necrotic area / Gross shapes: 0.05 ml each into tumor 1 cm in size
From the text: S-180 sarcomas were implanted into the hypodermal tissues of mice of Kun Ming species. When the tumor grew into 1 cm in size, a puncture needle was punctured into the center of the tumor and then connected with an automatic micro-injecting pump.

liver of hogs in vivo = conditions: 1.0 ml each into hog liver; 1 week after injection
From the text: Experiment in vivo: Nine hogs (females and males) with average body weight of 70 kg were fed in an enclosed area. The hogs were divided into 3 groups, 3 hogs in each group. The hair on the location of liver was shaved and the skin was sterilized. […] The animals were dissected 1 week after the injection.

[1] = test system: cancerous pain due to advanced cancers; conditions: 3.6 wt % HCl to block and damage the nerves
pig liver in vivo = conditions: for diameters of coagulated areas / pathological changes: 1 ml of 3.6% hydrochloric acid
From the text: Ten hogs (females and males), with body weights of 70 kg on average, were fed in an enclosed area. The hair on the location of the liver of each hog was shaved and the skin sterilized guided by B-type ultrasonography. The puncture needle was punctured through the skin to the liver and then the needle was connected with an automatic micro-injecting pump. […] The animal was dissected at 1 week, 4 weeks, 12 weeks and 24 weeks after injection, and the shapes of the coagulating necrotic areas were observed and the diameters of the areas were measured. […] Then the liver tissue including normal tissue and coagulating necrotic tissue was fixed with formalin. Paraffin sections were prepared and the histopathological changes were observed under a microscope. […] Under a microscope, the structure of coagulating necrotic liver tissue was divided into two layers: the necrotic area in the center, and the surrounding reacting area.

kidney cancer = conditions: 1.5 ml of 18 wt % HCl, 3 months after treatment
Protocol: Treatment of kidney cancer: guided by CT, the puncture needle hit the center of the tumor, 1.5 ml of 18 wt % HCl was injected into the tumor slowly.

pig liver in vitro = test system: pig liver in vitro
Protocol: Thirty pig livers purchased from the market were divided into 10 groups, 3 in each group. […] One milliliter (1 ml) of hydrochloric acid solutions, (the concentrations being 1.8 wt %, 3.6 wt %, 7.2 wt %, 10.8 wt %, 14.4 wt %, 18 wt %, 25.2 wt %), and 1 ml , 0.5 ml, 0.1 ml respectively, of analytical pure hydrochloric acid were injected slowly to the […] of different groups, at a speed of 0.3 ml/min. The gross specimens were observed and the average value of the diameters of coagulated areas was determined.

[2] = test system: metastatic tumor of the adrenal gland from pulmonary carcinoma; conditions: 1.0 ml of 18 wt % HCl, treated three times
[3] = test system: primary bronchopulmonary carcinoma
Protocol: Two cases of primary bronchopulmonary carcinoma which were pathologically confirmed were chosen. One was a case of adenocarcinoma, the other was a case of adenous prickle cell carcinoma. The sizes of the two tumors were 2.0×2.0 cm and 2.5×2.0 cm respectively. After CT location, guided by CT, percutaneous puncture was carried out on each case; the needle reached the center of the tumor and connected with an automatic micro-injecting pump, 1.5, 2.0 ml of 18 wt % HCl were injected into the tumors at a speed of 0.2 ml/min.

[4] = test system: abdominal hypodermal tissue of mice
Protocol: Thirty mice were used in the experiment. 0.05 ml of 3.8 wt % HCl was injected into the abdominal hypodermal tissue of each of them. […] Injection of 0.05 ml of normal saline was given to each of the remaining 6 mice which served as the control group. Normal saline was injected into the corresponding site where HCl had been injected to the other experimental mice.

[5] = test system: recurrent carcinoma of breast; conditions: 1.0 ml of 18 wt % HCl, treated three times; tumor 2.0 cm×1.5 cm
cancer cells = assay: Cultivation of cancer cells in vitro together with gastric juice; format: cell-based
lungs of hogs = test system: lungs of hogs
From the text: The lung of the animal was dissected 1 week after the injection.

[6] = test system: metastatic tumor of the left lobe of the brain from pulmonary adenocarcinoma; conditions: 1.0 ml of 18 wt % HCl, two times; tumor 1.9 cm×1.9 cm before; 3 months after treatment
skin of guinea pig = conditions: 0.2 ml of 3.6 wt % HCl hypodermal
Protocol: Six guinea pigs, female and males, 500 g each in body weight, were fed in the routine way. The guinea pig was anesthetized by ether. 0.2 ml of 3.6 wt % HCl was injected into the hypodermal tissue of the guinea pig.

[7] = 1.5 ml-2.0 ml of 18 wt % HCl with i.v. 5 wt % sodium bicarbonate, 4 patients
[8] = 1.5 ml-2.0 ml of 18 wt % HCl, one week after injection

Protocol for W256 sarcoma: Rats, female and males, 500 g each in body weight, were fed routinely. Hypodermic implantation of W256 sarcoma was carried out. Sarcoma, 5 cm in diameter, was chosen. One (1.0) ml of 18 wt % HCl was slowly injected into the tumor. Twenty-four hours after injection, the rats were dissected, and the tumors were observed.

For CC(=O)O [50% acetic acid, acetic acid], the “diameter of coagulating necrotic area” value (pig livers in vitro) was 2.0 cm, the gross shape (pig livers in vitro) was “lump-like, white, the border” and the “Diameters of coagulating necrotic area” value (S-180 sarcomas) was 0.62 cm. For the same compound, the Gross shapes (S-180 sarcomas) was “brown, the border was unclear,”, the “diameter of coagulating necrotic area” value (liver of hogs in vivo) was “about 1.8 cm” and the “gross examination of coagulating necrotic area” value (“gross examination” below) (liver of hogs in vivo) was “did not have a definite border”.

With CCO [100% absolute alcohol, absolute alcohol] the “diameter of coagulating necrotic area” value (pig livers in vitro) was 0.5 cm, the gross shape (pig livers in vitro) was “spherical, white, the border” and the “Diameters of coagulating necrotic area” value (S-180 sarcomas) was 0.41 cm. The Gross shapes (S-180 sarcomas) was “spherical, white in color, the border”, the “diameter of coagulating necrotic area” value (liver of hogs in vivo) was 0.5 cm and the “gross examination” value (liver of hogs in vivo) was “spherical, white in color”.

For Cl [hydrochloric acid], the “relief of cancerous pain” value [1] was “pain could be relieved”, the “diameter of coagulating necrotic area” value (pig livers in vitro) was 2.2 cm and the gross shape (pig livers in vitro) was “spherical, grayish white in color, the”. The “diameters of coagulated areas” value (pig liver in vivo; 1 week after injection) was 1.8 cm, the pathological changes (pig liver in vivo; 1 week after injection) was “necrotic area occupies most part of the area,” and the “diameters of coagulated areas” value (pig liver in vivo; 4 weeks after injection) was 1.3 cm. The pathological changes (pig liver in vivo; 4 weeks after injection) was “The necrotic area became smaller, infiltration”, the “diameters of coagulated areas” value (pig liver in vivo; 12 weeks after injection) was 0.5 cm and the pathological changes (pig liver in vivo; 12 weeks after injection) was “The necrotic area became further smaller, the”. For the same compound, the “animal death during the experiment” value (pig liver in vivo; 1 ml of 3.6 wt % hydrochloric acid into hog liver) was “no animal died due to the treatment”, the “diameter of round high level echo region at coagulated site by B-type ultrasonography” value (pig liver in vivo; 1 ml of 3.6 wt % hydrochloric acid, immediately after injection) was 2.0 cm and the “fate of necrotic substances” value (pig liver in vivo; 1 ml of 3.6 wt % hydrochloric acid, sixteen weeks after injection) was “the necrotic substances were absorbed”. The “pH value of blood, blood routine tests, liver and kidney function tests” value (primary liver cancer; [7]) was “all normal”, the “painful or toxic manifestation” value (primary liver cancer; [7]) was “None of the 4 patients had painful or toxic manifestation” and the “color ultrasonography of the tumor” value (primary liver cancer; [8]) was “high level echo without blood flow area”. For the same compound, the “liver cancer sensitive index α-fetoglobulin value” (primary liver cancer; [8]) was “markedly lowered”, the “appearance of tumor on re-examination” value (kidney cancer) was “high level echo locus without blood flow” and the “diameter of tumor on re-examination” value (kidney cancer; tumor 3.0 cm×2.5 cm before) was 0.5 cm. For the same compound, the “diameter of brown necrotic tumor tissue” value (W256 sarcoma; 1.0 ml of 18 wt % HCl into sarcoma 5 cm in diameter, 24 hours after injection) was 3.5 cm, the “death or intoxication during the treatment” value (W256 sarcoma; 1.0 ml of 18 wt % HCl intratumoral) was “no death or intoxication occurred among the rats” and the “histopathologic changes by microscopy” value (W256 sarcoma; 1.0 ml of 18 wt % HCl, 24 hours after injection) was “complete necrosis occurred in the necrotic area”. The “Diameter of coagulated areas” value (pig liver in vitro; 0.1 ml of analytic pure hydrochloric acid (36%), 24 hours after injection) was 1.5 cm, the “Diameter of coagulated areas” value (pig liver in vitro; 0.1 ml of analytic pure hydrochloric acid (36%), immediately after injection) was 0.2 cm and the “Diameter of coagulated areas” value (pig liver in vitro; 0.5 ml of analytic pure hydrochloric acid (36%), 24 hours after injection) was 3.9 cm. For the same compound, the “Diameter of coagulated areas” value (pig liver in vitro; 0.5 ml of analytic pure hydrochloric acid (36%), immediately after injection) was 1.5 cm, the “Diameter of coagulated area” value (pig liver in vitro; 1 ml of 1.8 % hydrochloric acid, 24 hours after injection) was 0.75 cm and the “Diameter of coagulated area” value (pig liver in vitro; 1 ml of 1.8 % hydrochloric acid, immediately after injection) was 0.7 cm. For the same compound, the “Diameter of coagulated area” value (pig liver in vitro; 1 ml of 3.6 % hydrochloric acid, 24 hours after injection) was 1.4 cm, the “Diameter of coagulated area” value (pig liver in vitro; 1 ml of 3.6 % hydrochloric acid, immediately after injection) was 1.0 cm and the “Diameter of coagulated area” value (pig liver in vitro; 1 ml of 7.2 % hydrochloric acid, 24 hours after injection) was 1.9 cm. For the same compound, the “Diameter of coagulated area” value (pig liver in vitro; 1 ml of 7.2 % hydrochloric acid, immediately after injection) was 1.3 cm, the “Diameter of coagulated area” value (pig liver in vitro; 1 ml of 10.8 % hydrochloric acid, 24 hours after injection) was 2.2 cm and the “Diameter of coagulated area” value (pig liver in vitro; 1 ml of 10.8 % hydrochloric acid, immediately after injection) was 1.5 cm. For the same compound, the “Diameter of coagulated area” value (pig liver in vitro; 1 ml of 14.4 % hydrochloric acid, 24 hours after injection) was 3.1 cm, the “Diameter of coagulated area” value (pig liver in vitro; 1 ml of 14.4 % hydrochloric acid, immediately after injection) was 1.8 cm and the “Diameter of coagulated area” value (pig liver in vitro; 1 ml of 18 % hydrochloric acid, 24 hours after injection) was 4.8 cm. For the same compound, the “Diameter of coagulated area” value (pig liver in vitro; 1 ml of 18 % hydrochloric acid, immediately after injection) was 2.2 cm, the “Diameter of coagulated area” value (pig liver in vitro; 1 ml of 25.2 % hydrochloric acid, 24 hours after injection) was 5.2 cm and the “Diameter of coagulated area” value (pig liver in vitro; 1 ml of 25.2 % hydrochloric acid, immediately after injection) was 2.4 cm. The “Diameter of coagulated areas” value (pig liver in vitro; 1.0 ml of analytic pure hydrochloric acid (36%), 24 hours after injection) was 5.5 cm, the “Diameter of coagulated areas” value (pig liver in vitro; 1.0 ml of analytic pure hydrochloric acid (36%), immediately after injection) was 2.8 cm and the tumor response [2] was “necrosis of the tumor occurred”. The “cytological examination of needle puncture biopsy” value ([3]; 1.5, 2.0 ml of 18 wt % HCl) was “found necrotic tissue”, the “reactions during the treatment” value ([3]; 1.5, 2.0 ml of 18 wt % HCl with i.v. 5% sodium bicarbonate, two patients) was “coughed slightly during the treatment; no other painful or toxic manifestations occurred” and the “pH value of blood, blood routine tests, liver and kidney function tests” value ([3]; 1.5, 2.0 ml of 18 wt % HCl, two patients) was “all normal”. For the same compound, the “damage in the abdominal organs by dissection” value ([4]; 0.05 ml of 3.8 wt % HCl abdominal hypodermal) was “No damage was found in the abdominal organs”, the “diameters of damages (ulcer-like damages of the skin)” value ([4]; 0.05 ml of 3.8 wt % HCl then 0.05 ml normal saline (control group)) was 1.2 cm and the “diameters of scar areas” value ([4]; 0.05 ml of 3.8 wt % HCl then normal saline (control group), one week later) was 0.9 cm. The tumor response [5] was “basically turned into necrotic tissue”, the “effect on cancer cells in culture” value (cancer cells) was “the destruction was due to gastric acid” and the “coagulating necrotic ranges of the liver” value (hogs; 18 wt % HCl, 0.5, 1, 3 ml at 0.1, 0.5, 1 ml/min into hog liver, one week after injection) was 1.2-5.2 cm. For the same compound, the death or intoxication (hogs; 18 wt % HCl, 0.5 ml-3 ml into hog liver) was “No death or intoxication of hog occurred”, the “reaction of animal at injection” value (lungs of hogs; 1.0 ml of 3.6 wt % HCl into the lung at 0.3 ml/min) was “coughed slightly” and the “diameter of coagulated (consolidated) lung tissue” value (lungs of hogs; 1.0 ml of 3.6 wt % HCl, 1 week after injection) was 1.8 cm. The “coagulating necrotic area on dissection of the lung” value (lungs of hogs; 1.0 ml of 3.6 wt % HCl, four weeks after injection) was “the coagulating necrotic area became smaller”, the “fate of necrotic substances” value (lungs of hogs; 1.0 ml of 3.6 wt % HCl, three months after injection) was “the necrotic substances were absorbed” and the “Diameters of coagulating necrotic area” value (S-180 sarcomas) was 0.76 cm. For the same compound, the Gross shapes (S-180 sarcomas) was “spherical, caseous, grayish white in color,”, the “necrosis of the tumor” value (S-180 sarcomas; 0.05 ml) was “complete necrosis of the tumor” and the “size of metastatic tumor by intensified CT” value [6] was 0.8 cm. The “skin change after injection” value (skin of guinea pig) was “the skin became rough and a little exudation occurred”, the “skin change three weeks later” value (skin of guinea pig; iodine tincture smeared, three weeks later) was “the surface became dry and scar was formed” and the “diameter of surface of ulcer” value (skin of guinea pig; one week after injection) was 1.0 cm. The “diameter of coagulating necrotic area” value (liver of hogs in vivo) was 2.1 cm and the “gross examination” value (liver of hogs in vivo) was “spheroid”.

Source: US20050048132A1, “Use of hydrochloric acid in the preparation of a medicament for the treatment of tumour” (priority 2001, published 2005)
